Results: ChEMBL document CHEMBL1201862, “PubChem BioAssay data set” (2004)
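These data come from cells grown in 96-well plates and exposed to compound for 48 hours at five concentrations. The concentration for 50% growth inhibition is given as GI50.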 Activity calls are given as the source filed them. Cut-off read from the data, not from the text of the source: active = GI50 up to about 1.1 µM and inactive = higher.

What was measured:
Test in all cases: NCI tumour cell line growth inhibition, 48 h
OVCAR-4 = tested on: OVCAR-4
IGROV-1 = tested on: IGROV-1
SR = tested on: SR
M19-MEL = tested on: M19-MEL
OVCAR-5 = tested on: OVCAR-5
Hs-578T = tested on: Hs-578T
NCI-H23 = tested on: NCI-H23
Malme-3M = tested on: Malme-3M
HOP-18 = tested on: HOP-18
M14 = tested on: M14
HT-29 = tested on: HT-29
DU-145 = tested on: DU-145
RXF 393 = tested on: RXF 393
HCC 2998 = tested on: HCC 2998
MCF7 = tested on: MCF7
SN12C = tested on: SN12C
NCI-H460 = tested on: NCI-H460
T47D = tested on: T47D
CAKI-1 = tested on: CAKI-1
SK-MEL-2 = tested on: SK-MEL-2
LXFL 529 = tested on: LXFL 529
U-251 = tested on: U-251
NCI-H522 = tested on: NCI-H522
A549 = tested on: A549
HOP-62 = tested on: HOP-62
HL-60 = tested on: HL-60
SF-295 = tested on: SF-295
SF-539 = tested on: SF-539
COLO 205 = tested on: COLO 205
UO-31 = tested on: UO-31
DMS-273 = tested on: DMS-273
SNB-78 = tested on: SNB-78
KM-20L2 = tested on: KM-20L2
PC-3 = tested on: PC-3
UACC-257 = tested on: UACC-257
RPMI-8226 = tested on: RPMI-8226
SK-MEL-5 = tested on: SK-MEL-5
OVCAR-3 = tested on: OVCAR-3
NCI-H226 = tested on: NCI-H226
K562 = tested on: K562
786-0 = tested on: 786-0
LOX IMVI = tested on: LOX IMVI
SK-MEL-28 = tested on: SK-MEL-28
HOP-92 = tested on: HOP-92
EKVX = tested on: EKVX
SF-268 = tested on: SF-268
DLD-1 = tested on: DLD-1
HCT-15 = tested on: HCT-15
SK-OV-3 = tested on: SK-OV-3
TK-10 = tested on: TK-10
NCI/ADR-RES = tested on: NCI/ADR-RES
MDA-N = tested on: MDA-N
MDA-MB-435 = tested on: MDA-MB-435
MDA-MB-231 = tested on: MDA-MB-231
ACHN = tested on: ACHN
SNB-19 = tested on: SNB-19
DMS-114 = tested on: DMS-114
HCT-116 = tested on: HCT-116
MOLT-4 = tested on: MOLT-4
CCRF-CEM = tested on: CCRF-CEM
UACC-62 = tested on: UACC-62
SNB-75 = tested on: SNB-75
A498 = tested on: A498
OVCAR-8 = tested on: OVCAR-8
SW-620 = tested on: SW-620
KM12 = tested on: KM12

Structure (SMILES): O=C(CCC1CCCCN1)Nc1ccc2c(c1)C(=O)c1ccc(NC(=O)CCN3CCCCC3)cc1C2=O (stereo unspecified)
- GI50 (OVCAR-4): 1.65 µM (inactive)
- GI50 (IGROV-1): 6.82 µM (inactive)
- GI50 (SR): 493 nM (active)
- GI50 (M19-MEL): 2.04 µM (inactive)
- GI50 (OVCAR-5): 2.34 µM (inactive)
- GI50 (Hs-578T): > 10 µM (inactive)
- GI50 (NCI-H23): 2.21 µM (inactive)
- GI50 (Malme-3M): 1.43 µM (inactive)
- GI50 (HOP-18): 2.79 µM (inactive)
- GI50 (M14): 1.32 µM (inactive)
- GI50 (HT-29): 2.52 µM (inactive)
- GI50 (DU-145): > 10 µM (inactive)
- GI50 (RXF 393): 776 nM (active)
- GI50 (HCC 2998): > 10 µM (inactive)
- GI50 (MCF7): > 10 µM (inactive)
- GI50 (SN12C): 1.91 µM (inactive)
- GI50 (NCI-H460): 4.17 µM (inactive)
- GI50 (T47D): > 10 µM (inactive)
- GI50 (CAKI-1): 2.11 µM (inactive)
- GI50 (SK-MEL-2): 1.37 µM (inactive)
- GI50 (LXFL 529): 1.32 µM (inactive)
- GI50 (U-251): 8.13 µM (inactive)
- GI50 (NCI-H522): 1.38 µM (inactive)
- GI50 (A549): 5.19 µM (inactive)
- GI50 (HOP-62): 9.29 µM (inactive)
- GI50 (HL-60): 5.77 µM (inactive)
- GI50 (SF-295): 3.56 µM (inactive)
- GI50 (SF-539): 2.97 µM (inactive)
- GI50 (COLO 205): 1.35 µM (inactive)
- GI50 (UO-31): 1.21 µM (inactive)
- GI50 (DMS-273): 2.54 µM (inactive)
- GI50 (SNB-78): 4.56 µM (inactive)
- GI50 (KM-20L2): 3.21 µM (inactive)
- GI50 (PC-3): > 10 µM (inactive)
- GI50 (UACC-257): 1.44 µM (inactive)
- GI50 (RPMI-8226): 7.55 µM (inactive)
- GI50 (SK-MEL-5): 1.4 µM (inactive)
- GI50 (OVCAR-3): 2.37 µM (inactive)
- GI50 (NCI-H226): 4.66 µM (inactive)
- GI50 (K562): 1.83 µM (inactive)
- GI50 (786-0): 9.75 µM (inactive)
- GI50 (LOX IMVI): 1.21 µM (inactive)
- GI50 (SK-MEL-28): 1.7 µM (inactive)
- GI50 (HOP-92): 2 µM (inactive)
- GI50 (EKVX): > 10 µM (inactive)
- GI50 (SF-268): 3.3 µM (inactive)
- GI50 (DLD-1): 1.61 µM (inactive)
- GI50 (HCT-15): 1580 nM
- GI50 (SK-OV-3): 5.3 µM (inactive)
- GI50 (TK-10): 1.22 µM (inactive)
- GI50 (NCI/ADR-RES): > 10 µM (inactive)
- GI50 (MDA-N): > 10 µM (inactive)
- GI50 (MDA-MB-435): > 10 µM (inactive)
- GI50 (MDA-MB-231): > 10 µM (inactive)
- GI50 (ACHN): 1.45 µM (inactive)
- GI50 (SNB-19): 7.19 µM (inactive)
- GI50 (DMS-114): 1.59 µM (inactive)
- GI50 (HCT-116): 2.03 µM (inactive)
- GI50 (MOLT-4): 1.95 µM (inactive)
- GI50 (CCRF-CEM): 8.73 µM (inactive)
- GI50 (UACC-62): 1.22 µM (inactive)
- GI50 (SNB-75): 2.62 µM (inactive)
- GI50 (A498): 4.14 µM (inactive)
- GI50 (OVCAR-8): 2.37 µM (inactive)
- GI50 (SW-620): > 10 µM (inactive)
- GI50 (KM12): 2.33 µM (inactive)
